# In paper PMC11697113, “The Hsc70 system maintains the synaptic SNARE protein SNAP-25 in an assembly-competent state and delays its aggregation [drawing 1]” (The Journal of Biological Chemistry, 2024):
# What was measured:
# Hsc70 [1] = target: T1, Hsc70 (Homo sapiens, UniProt P11142); test: ATPase activity of Hsc70 (malachite green); format: biochemical; conditions: Hsc70 2 μM, peptide 200 μM, 1 mM ATP, HMK buffer, 1 mM DTT, 37 °C, 1 h, malachite green 620 nm; SD, three independent experiments
# T1 construct: 6X His-tag (TEV-cleavable) (cleaved yes); made in house; host or cells: E. coli Rosetta (DE3)
# Source text: Hsp70s consist of an nucleotide-binding domain (NBD) and a substrate-binding domain (SBD). Hsc70 works using an allosteric mechanism whereby substrate binding at the SBD stimulates the ATP hydrolysis rate at the nucleotide-binding domain. The basal ATPase rate of Hsp70 is low, usually about 0.05 ± 0.009 mol Pi/mol protein, and increases when it is stimulated by binding of a peptide to the canonical site in the SBD. We measured the ability of SNAP-25 peptides SNNP and SNCP to stimulate the ATPase rate of Hsc70 (Fig. 5A). SNNP and SNCP binding cause a 1.5-fold increase of the Hsc70 ATPase rate over basal (observed rates upon addition of SNNP and SNCP were 0.089 ± 0.008 and 0.080 ± 0.005, respectively). In order to confirm that peptides are indeed binding at the canonical binding site of Hsc70, we used the V438F mutant that blocks the binding site ([37]). […] The addition of CSPαJ stimulates the ATPase activity of Hsc70 ∼4-fold with and without peptides.
# Figure 5 SNN and SNC peptides interact with the canonical substrate-binding site of Hsc70.A, ATPase activity of Hsc70 (2 μM) in the absence (gray) and presence of 200 μM SNNP (orange) and SNCP (green) peptides. Error bars represent the SDs from three independent experiments. B, binding of SNAP-25 (black), SNNP (orange), LoopP (blue), and SNCP (green) peptides to Hsc70 followed by competition for FITC-p5 peptide using fluorescence anisotropy. Increasing concentrations of the competitors were added to a complex of Hsc70 (5 μM) and FITC-p5 peptide (50 nM). Error bars represent SDs from three independent experiments. […]
# We performed ATPase assays to observe the activity of Hsc70 in the presence of SNAP25 peptides. […] Absorbance readings were taken at 620 nm using a BioTek plate reader. […]
# (C) ATPase activity of Hsc70 (at 2 μM) in the absence (grey) and presence of 200 μM SNNP (orange) and L(Loop)-SNCP (green) peptides, and in the absence and presence of CSPa-J and CSPa-J/Apg2. The statistical significance was calculated using one-way ANOVA test with Sidak’s multiple comparison and the Hsc70 ATPase activity […]
# Hsc70 [2] = target: T1, Hsc70; test: Methyl-TROSY NMR of Ile-13CH3-labeled Hsc70 with peptides; format: binding; conditions: Ile-13CH3 Hsc70 40 μM, 25 °C, 600 MHz, pD 7.4
# Protocol: Figure 5 SNN and SNC peptides interact with the canonical substrate-binding site of Hsc70.A, ATPase activity of Hsc70 (2 μM) in the absence (gray) and presence of 200 μM SNNP (orange) and SNCP (green) peptides. Error bars represent the SDs from three independent experiments. B, binding of SNAP-25 (black), SNNP (orange), LoopP (blue), and SNCP (green) peptides to Hsc70 followed by competition for FITC-p5 peptide using fluorescence anisotropy. Increasing concentrations of the competitors were added to a complex of Hsc70 (5 μM) and FITC-p5 peptide (50 nM). Error bars represent SDs from three independent experiments. C, structure of the canonical substrate-binding site of human HspA1 (PDB 4po2) illustrating the location of Hsc70 residues Ile 403 and Ile 440 in red and green spheres, respectively (N.B., Hsc70 and HspA1 share […] sequence identity). The SBD is shown in gray, bound substrate in cyan sticks, and the side chain of the residue occupying the 0th position in the chaperone (“anchor residue”) in orange ball and sticks. For better visualization of the substrate-binding site, residues 512 to 613, 405 to 408, and 431 were removed in this illustration of the structure. D, the Ile region of the ^1H-^13 C HMQC spectra of Ile-^13CH3-labeled Hsc70 (40 μM) in the absence (black) and in the presence of unlabeled SNNP (orange) and SNCP (green) peptides (200 μM).
# To directly observe binding of SNAP-25 peptides to Hsc70, we used methyl-TROSY NMR. We recorded the spectra of complexes between peptides containing the Hsc70 binding sites of SNAP-25 and Hsc70 selectively labeled (^1H,^13 C) at Ile δ1-methyl positions in a ^2H, ^12C background. We had previously found using the Escherichia coli Hsp70, DnaK, that the δ1-methyl chemical shifts of Ile 401 and 438, which contact the central residue of the bound peptide (anchor residue, Fig. 5C), change markedly depending on the identity of the bound anchor residue and the orientation of the peptide backbone with respect to DnaK ([38]). In Hsc70, the side chains of Ile 403 and 440 are similarly arranged with respect to the anchor residue of the bound peptide as Ile 401 and 438 are in DnaK (Fig. 5C) allowing us to use their δ1-methyl chemical shifts to assess directly how the chaperone binds to SNAP-25 peptides SNNP and SNCP. We confirmed the assignment of Ile 403 and Ile 440 chemical shifts by mutating these residues to Leu and collecting methyl-TROSY NMR spectra. The Hsp70 SBD site that binds the anchor residue (termed the 0th pocket) is most frequently occupied by Leu or Ile and less commonly by Val, Pro, or Met ([38], [39], [40], [41]). […]
# NMR experiments were carried out at 25 °C on a 600 MHz Bruker Avance III spectrometer equipped with a CryoProbe. Data were processed with NMRPipe and analyzed using ccpNMR Analysis. […]
# T1 sequence (P11142 whole entry): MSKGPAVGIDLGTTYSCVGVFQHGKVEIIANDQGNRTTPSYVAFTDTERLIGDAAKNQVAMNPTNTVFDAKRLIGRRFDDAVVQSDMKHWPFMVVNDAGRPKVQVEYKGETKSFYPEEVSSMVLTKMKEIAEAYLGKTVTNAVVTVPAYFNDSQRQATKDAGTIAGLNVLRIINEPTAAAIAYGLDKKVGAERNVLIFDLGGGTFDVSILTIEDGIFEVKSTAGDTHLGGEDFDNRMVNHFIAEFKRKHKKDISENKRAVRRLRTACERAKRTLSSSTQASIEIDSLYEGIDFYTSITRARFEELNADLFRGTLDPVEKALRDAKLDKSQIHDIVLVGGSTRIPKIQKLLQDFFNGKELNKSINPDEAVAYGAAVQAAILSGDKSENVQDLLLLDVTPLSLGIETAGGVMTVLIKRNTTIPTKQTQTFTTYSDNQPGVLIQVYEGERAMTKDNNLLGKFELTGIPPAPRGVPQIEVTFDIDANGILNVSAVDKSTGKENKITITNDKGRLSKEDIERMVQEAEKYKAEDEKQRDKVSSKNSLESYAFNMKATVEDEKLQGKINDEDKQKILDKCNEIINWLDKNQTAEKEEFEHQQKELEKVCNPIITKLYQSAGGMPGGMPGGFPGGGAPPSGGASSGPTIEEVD
Sequence,ATPase rate of Hsc70 upon addition of peptide (Hsc70 [1]),Ile 403 and 440 δ1-methyl signals on complex formation (Hsc70 [2]),Ile 440 chemical shift splitting (binding modes) (Hsc70 [2]),Ile 440 and 403 δ1-methyl chemical shift splitting (binding modes) (Hsc70 [2])
"EREQMAISGGFIRR [SNCP, peptide … from the LOOP-SNC domain of SNAP-25]",0.080 ± 0.005,indeed shift upon complex formation,split into two signals,
"RRMLQLVEESK [SNNP, peptide … from the SNN domain of SNAP-25]",0.089 ± 0.008,indeed shift upon complex formation,,split into two resonances each
